Columns and labels:
Liver = experiment: Tissue uptake clearance in mouse liver at […] mg/kg, iv in presence of 30 umol/kg TPeA; type: ADME, organism-based; conditions: in vivo
Kidney = experiment: Tissue uptake clearance in mouse kidney at […] mg/kg, iv in presence of 30 umol/kg TPeA; type: ADME, organism-based; conditions: in vivo
[1] = molecular target: T1, Solute carrier family 22 member 1 (Homo sapiens, UniProt O15245); experiment: Inhibition of OCT1-mediated [14C]tetraethylammonium uptake in human OCT1 expressing HEK293/PDZK1 cells by scintillation counting; type: ADME, cell-based; conditions: human, hek293/pdzk1
T1 sequence (O15245 whole entry): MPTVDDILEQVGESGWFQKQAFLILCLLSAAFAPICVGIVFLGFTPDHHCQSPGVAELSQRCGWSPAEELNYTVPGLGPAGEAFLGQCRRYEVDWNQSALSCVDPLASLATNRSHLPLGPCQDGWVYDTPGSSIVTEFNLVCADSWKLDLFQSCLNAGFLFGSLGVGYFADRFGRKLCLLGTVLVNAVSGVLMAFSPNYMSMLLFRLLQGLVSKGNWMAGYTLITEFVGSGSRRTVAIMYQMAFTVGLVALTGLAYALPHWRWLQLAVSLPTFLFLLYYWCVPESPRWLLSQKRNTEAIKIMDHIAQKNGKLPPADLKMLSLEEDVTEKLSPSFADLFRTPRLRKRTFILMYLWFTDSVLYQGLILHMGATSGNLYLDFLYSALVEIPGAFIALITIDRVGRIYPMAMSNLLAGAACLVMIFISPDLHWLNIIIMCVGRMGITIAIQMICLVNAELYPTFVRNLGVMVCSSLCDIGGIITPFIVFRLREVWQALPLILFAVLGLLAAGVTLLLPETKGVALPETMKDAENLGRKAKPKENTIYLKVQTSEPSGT

SMILES | Drug uptake (Liver) | Drug uptake (Kidney) | inhibition (INH) [1]
CN(C)C(=N)N=C(N)N [METFORMIN] | Not Active | Not Active | 
CC[N+](CC)(CC)CC [TETRYLAMMONIUM] |  |  | Active

Reference: ChEMBL document CHEMBL3526078, “Pharmacokinetics and hepatic uptake of eltrombopag, a novel platelet-increasing agent” (Drug Metab Dispos, 2011)
